Data set [1] concerns HeLa. As to the kind of experiment: Antiproliferative activity against BRCA1 deficient human HeLa cells after 7 days by cell titer-blue assay. The format is functional. To be noted: 168 h. A general note: The colour change of resazurin is a common sign of viable cells or microbes.
Data set [2] deals with T1, PARP 1, 2 and 3 (Homo sapiens, UniProt P09874+Q9Y6F1+Q9UGN5). As to the kind of experiment: Inhibition of PARP in hydrogen peroxide-induced human HeLa cells assessed as inhibition DNA-damage-induced PARylation. Type of data set: cell-based.
Data set [3] deals with HeLa. As to the kind of experiment: Antiproliferative activity against human HeLa cells expressing wild type BRCA1 after 7 days by cell titer-blue assay. The format is functional. The settings on record: 168 h.
Data set [4] concerns the target T1, PARP 1, 2 and 3. The settings on record: HeLa.
For data set [5], the target named is Poly [ADP-ribose] polymerase 1 (Homo sapiens, UniProt P09874). As to the kind of experiment: Inhibition of human PARP1 by SPA.
Poly [ADP-ribose] polymerase 1, sequence (P09874 whole entry): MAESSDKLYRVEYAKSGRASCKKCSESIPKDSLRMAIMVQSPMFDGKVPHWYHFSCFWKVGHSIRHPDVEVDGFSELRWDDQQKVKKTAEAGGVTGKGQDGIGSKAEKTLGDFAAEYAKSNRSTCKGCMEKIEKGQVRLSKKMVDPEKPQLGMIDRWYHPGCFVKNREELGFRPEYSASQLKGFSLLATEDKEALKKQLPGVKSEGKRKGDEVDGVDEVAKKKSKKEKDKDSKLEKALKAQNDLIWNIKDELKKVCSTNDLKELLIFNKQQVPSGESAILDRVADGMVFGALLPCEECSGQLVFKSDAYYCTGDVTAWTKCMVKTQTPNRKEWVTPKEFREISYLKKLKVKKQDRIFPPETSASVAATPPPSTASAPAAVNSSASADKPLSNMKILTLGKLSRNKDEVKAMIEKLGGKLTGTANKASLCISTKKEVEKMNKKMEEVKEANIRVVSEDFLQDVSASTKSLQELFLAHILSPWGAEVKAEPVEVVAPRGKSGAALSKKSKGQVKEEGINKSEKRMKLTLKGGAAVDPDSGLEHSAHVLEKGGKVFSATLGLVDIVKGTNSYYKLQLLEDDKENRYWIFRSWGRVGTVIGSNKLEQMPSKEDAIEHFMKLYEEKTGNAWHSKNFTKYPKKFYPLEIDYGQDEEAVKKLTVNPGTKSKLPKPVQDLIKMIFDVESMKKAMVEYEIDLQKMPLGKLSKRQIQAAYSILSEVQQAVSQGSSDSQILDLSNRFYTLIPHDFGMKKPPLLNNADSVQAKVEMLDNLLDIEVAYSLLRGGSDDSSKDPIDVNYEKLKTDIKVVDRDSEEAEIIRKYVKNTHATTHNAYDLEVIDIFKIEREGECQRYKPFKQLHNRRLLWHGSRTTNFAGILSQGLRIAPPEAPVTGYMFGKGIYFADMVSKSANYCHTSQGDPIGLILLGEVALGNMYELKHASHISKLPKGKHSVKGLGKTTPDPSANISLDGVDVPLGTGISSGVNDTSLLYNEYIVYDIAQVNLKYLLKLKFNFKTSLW
For data set [6], the target named is T2, CYP1A2 (Rattus norvegicus, UniProt P04799).
T2 sequence (P04799 whole entry): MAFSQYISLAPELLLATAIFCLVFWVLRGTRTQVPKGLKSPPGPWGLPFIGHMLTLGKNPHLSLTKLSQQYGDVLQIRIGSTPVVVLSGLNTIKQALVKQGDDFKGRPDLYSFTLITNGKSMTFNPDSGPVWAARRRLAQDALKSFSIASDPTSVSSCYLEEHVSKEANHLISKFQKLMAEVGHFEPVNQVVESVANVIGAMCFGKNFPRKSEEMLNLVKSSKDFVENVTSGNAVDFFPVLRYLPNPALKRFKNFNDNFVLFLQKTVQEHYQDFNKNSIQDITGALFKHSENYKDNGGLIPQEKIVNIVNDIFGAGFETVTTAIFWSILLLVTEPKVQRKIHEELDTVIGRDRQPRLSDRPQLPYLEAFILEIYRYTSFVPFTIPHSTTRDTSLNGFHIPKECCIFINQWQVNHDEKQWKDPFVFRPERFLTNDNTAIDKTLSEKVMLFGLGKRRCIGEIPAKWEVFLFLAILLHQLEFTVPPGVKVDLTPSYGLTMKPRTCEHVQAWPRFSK
As to the kind of experiment: (§1) Intrinsic clearance in rat liver microsomes assessed per mg of protein up to 60 mins in presence of rat recombinant CYP1A2. The format is ADME, Microsome. The settings on record: rat liver microsomes with rat recombinant CYP1A2. A general note: Liver microsomes are vesicles of endoplasmic reticulum, rich in cytochrome P450 enzymes.

Data set [7] is described as follows: Intrinsic clearance in rat liver microsomes assessed per mg of protein up to 90 mins. The format is ADME, Microsome.
Data set [8] is described as follows: Intrinsic clearance in mouse liver microsomes assessed per mg of protein up to 90 mins. Type of data set: ADME, Microsome.
Data set [9] can be described thus: Plasma clearance in rat. The format is ADME, organism-based.
Data set [10] has as its target T3, Cytochrome P450 1A2 (Rattus norvegicus, UniProt P04799).
T3 sequence (P04799 whole entry): T2 sequence (P04799 whole entry)
The data set is described as §1. The format is ADME, Microsome. To be noted: microsomes, 1 h.

Data set [11] relates to HeLa. As to the kind of experiment: Selectivity index, ratio of CC50 for BRCA1 proficient human HeLa cells to CC50 for BRCA1 deficient human HeLa cells. The format is functional.
Data set [12] can be described thus: Solubility in phosphate buffer. The format is physicochemical.
The nature of data set [13]: Oral bioavailability in rat. The format is ADME, organism-based. The settings on record: in vivo.
Data set [14] in a line: Volume of distribution in rat. The format is ADME, organism-based. The settings on record: in vivo.
The nature of data set [15]: Terminal half life in rat. To be noted: in vivo, read-out: beta t1/2 (converted). Type of data set: ADME, organism-based.

Usually CC50 stands for the concentration giving 50% cytotoxicity. A higher CC50 goes with lower toxicity to the cells. As usually defined, the EC50 is the concentration needed to bring the measured effect to its halfway point. One may read the EC90 as the concentration needed for an effect of 90%. A higher EC90 goes with weaker potency. As usually defined, the IC50 is the concentration needed to halve the response being measured. Read a high IC50 as lower potency. Regarding `NC(=O)c1cccc2cn(-c3ccc(CNCC(F)F)cc3)nc12`, the CC50 in data set [1] and in data set [3] was greater than 6600 nM in each case. Further, the EC50 in data set [2] is on record as 3400 nM. Also, the EC90 in data set [4] is 7600 nM. For the same molecule, the IC50 in data set [5] was determined as 14 nM.

The term microsomal CLint denotes the rate of metabolic loss divided by the concentration. On to `NC(=O)c1cccc2cn(-c3ccc(C4CCCN4)cc3)nc12` (configuration not stated), for which the microsomal CLint was 2.5 µL/min/mg in [6], 22 µL/min/mg in [7] and 4 µL/min/mg in data set [8]. The CC50 in data set [1] stood at 190 nM; in data set [3], 10000 nM. For the same molecule, the EC50 in [2] was found to be 31 nM. Also, in data set [4], the EC90 is 430 nM. Further, the IC50 in [5] turned out to be 3.1 nM.

A word on the clearance: it is the rate of elimination divided by the concentration. Regarding `CC(C)NCc1ccc(-n2cc3cccc(C(N)=O)c3n2)cc1`, the microsomal CLint turned out to be 0.8 µL/min/mg in data set [6], 18 µL/min/mg in [7] and 1 µL/min/mg in data set [8]. Further, the CC50 in data set [1] is 2000 nM; in [3] it was 10000 nM. Besides, in [2], the EC50 was 700 nM. This molecule gave an EC90 in data set [4] of 2000 nM. It took 6.7 nM to reach half-maximal inhibition in data set [5] (IC50). For the same molecule, in data set [9], the clearance is 131 mL/min/kg.

For the molecule `CNC(C)c1ccc(-n2cc3cccc(C(N)=O)c3n2)cc1` (configuration not stated), the microsomal CLint in data set [6] was 2.2 µL/min/mg; in data set [7], 9 µL/min/mg; in data set [8], 1 µL/min/mg. For the same molecule, the CC50 stood at 3100 nM in data set [1] and 14000 nM in data set [3]. Further, in data set [2], the EC50 is given as 58 nM. The molecule further showed an EC90 in data set [4] of 680 nM. Also, in [5], the IC50 was found to be 3.7 nM. Moreover, the clearance in data set [9] is 58 mL/min/kg.

On to `CNCCc1ccc(-n2cc3cccc(C(N)=O)c3n2)cc1`, for which the CC50 in [1] was 19000 nM; in data set [3], greater than 20000 nM. Moreover, the IC50 in data set [5] was found to be 200 nM.

By solubility is commonly meant the dissolved amount per volume that the medium holds. Consider `CN(C)Cc1ccc(-n2cc3cccc(C(N)=O)c3n2)cc1`, for which the CL in data set [10] was determined as 8.7 µL/min/mg. The intrinsic metabolic clearance (microsomal CLint) in [7] amounted to 177 µL/min/mg; in data set [8], 1 µL/min/mg. Further, in [11], the “Selectivity Index” value is reported as 10. Besides, the cytotoxic concentration (CC50) in data set [1] was found to be 520 nM; in data set [3], 5600 nM. Besides, the EC50 in [2] is reported as 110 nM. Besides, the EC90 in [4] amounted to 630 nM. Moreover, in data set [5], the IC50 was 3.7 nM. In addition, the solubility in data set [12] was greater than 3000 µg/mL. The clearance in data set [9] is 450 mL/min/kg.

In turn, `NC(=O)c1cccc2nn(-c3ccccc3)nc12` yielded an IC50 in data set [5] of 71 nM.

Consider `CN(C)CCN(C)Cc1ccc(-n2cc3cccc(C(N)=O)c3n2)cc1`, for which the results for the CC50 in [1] and in data set [3] were 3900 nM and greater than 20000 nM, respectively. Further, in data set [2], the EC50 stood at 170 nM. This molecule also yielded an EC90 in [4] of 4400 nM. The same molecule showed an IC50 in data set [5] of 5.9 nM.

As for `NC(=O)c1cccn2nc(-c3ccccc3)nc12`, half-maximal inhibition in [5] (IC50) required 270 nM.

As for `NC(=O)c1cccc2cn(-c3ccc(CN4CCOCC4)cc3)nc12`, the CC50 was 5300 nM in [1] and greater than 20000 nM in data set [3]. For the same molecule, the EC50 in data set [2] was found to be 1200 nM. Further, the EC90 in [4] is 6200 nM. In data set [5], this molecule returned an IC50 of 17 nM.

With `NC(=O)c1cccc2cn(Cc3ccccc3)nc12`, the EC50 in [2] was greater than 5000 nM. For the same molecule, in [4], the EC90 is greater than 5000 nM. Besides, in [5], half-maximal inhibition (IC50) required 130 nM.

Consider `NC(=O)c1cccc2cn(-c3ccc(CNCCF)cc3)nc12`, for which the EC50 in [2] was greater than 5000 nM. The same molecule displayed an IC50 in [5] of 2.1 nM.

In the case of `NC(=O)c1cccc2cn(-c3ccc(C4CCNCC4)cc3)nc12`, the values for the microsomal CLint in [6], in [7] and in [8] were less than 0.1 µL/min/mg, 15 µL/min/mg and 5 µL/min/mg, respectively. For the same molecule, the CC50 in data set [1] came out at 410 nM; in data set [3], 4500 nM. This molecule showed an IC50 in data set [5] of 9 nM.

As a reminder, the bioavailability is the share of a dose that reaches the circulation, judged against a reference dose that is usually intravenous. A higher bioavailability goes with much systemic uptake. The Vd is a proportionality between amount in the body and measured concentration, not a real space. Higher therefore signals extensive tissue distribution. In [13], `NC(=O)c1cccc2cn(-c3ccccc3)nc12` gave a bioavailability of 41%. The molecule also returned a Vd in data set [14] of 1.8 L/kg. The values for the microsomal CLint in [7] and in data set [8] were 123 µL/min/mg and 138 µL/min/mg, respectively. In data set [15], the half-life was 5.1 h. The EC50 in data set [2] amounted to 3700 nM. In [4], the EC90 amounted to 6200 nM. This molecule also had an IC50 in [5] of 24 nM. The molecule further had a clearance in data set [9] of 30 mL/min/kg.

Values taken from ChEMBL document CHEMBL1157008, “Discovery of 2-{4-[(3S)-piperidin-3-yl]phenyl}-2H-indazole-7-carboxamide (MK-4827): a novel oral poly(ADP-ribose)polymerase (PARP) inhibitor efficacious in BRCA-1 and -2 mutant tumors” (J Med Chem, 2009).
